molecular target: human TRPA1 (Homo sapiens (Human), UniProt O75762); test: In vitro inhibition of human TRPA1, whole cell patch configuration; assay type: cell-based; conditions: current activation 10 μM AITC, tested concentrations 320 pM to 3.2 μM, read-out: hTRPA1 IC50
In short: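 Compound antagonism measured from voltage ramps (±100 or ±80 mV, 400 ms, every 4 s from −40 mV), analysed at −80 and 80 mV, or at constant −60 mV. HEPES-buffered NaCl bath, pH 7.4, EGTA or 2 mM Ca2+; temperature set by perfusion, within ±2° C; no junction-potential correction.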

Sequence of human TRPA1 (O75762 whole entry, the tested form may be a part): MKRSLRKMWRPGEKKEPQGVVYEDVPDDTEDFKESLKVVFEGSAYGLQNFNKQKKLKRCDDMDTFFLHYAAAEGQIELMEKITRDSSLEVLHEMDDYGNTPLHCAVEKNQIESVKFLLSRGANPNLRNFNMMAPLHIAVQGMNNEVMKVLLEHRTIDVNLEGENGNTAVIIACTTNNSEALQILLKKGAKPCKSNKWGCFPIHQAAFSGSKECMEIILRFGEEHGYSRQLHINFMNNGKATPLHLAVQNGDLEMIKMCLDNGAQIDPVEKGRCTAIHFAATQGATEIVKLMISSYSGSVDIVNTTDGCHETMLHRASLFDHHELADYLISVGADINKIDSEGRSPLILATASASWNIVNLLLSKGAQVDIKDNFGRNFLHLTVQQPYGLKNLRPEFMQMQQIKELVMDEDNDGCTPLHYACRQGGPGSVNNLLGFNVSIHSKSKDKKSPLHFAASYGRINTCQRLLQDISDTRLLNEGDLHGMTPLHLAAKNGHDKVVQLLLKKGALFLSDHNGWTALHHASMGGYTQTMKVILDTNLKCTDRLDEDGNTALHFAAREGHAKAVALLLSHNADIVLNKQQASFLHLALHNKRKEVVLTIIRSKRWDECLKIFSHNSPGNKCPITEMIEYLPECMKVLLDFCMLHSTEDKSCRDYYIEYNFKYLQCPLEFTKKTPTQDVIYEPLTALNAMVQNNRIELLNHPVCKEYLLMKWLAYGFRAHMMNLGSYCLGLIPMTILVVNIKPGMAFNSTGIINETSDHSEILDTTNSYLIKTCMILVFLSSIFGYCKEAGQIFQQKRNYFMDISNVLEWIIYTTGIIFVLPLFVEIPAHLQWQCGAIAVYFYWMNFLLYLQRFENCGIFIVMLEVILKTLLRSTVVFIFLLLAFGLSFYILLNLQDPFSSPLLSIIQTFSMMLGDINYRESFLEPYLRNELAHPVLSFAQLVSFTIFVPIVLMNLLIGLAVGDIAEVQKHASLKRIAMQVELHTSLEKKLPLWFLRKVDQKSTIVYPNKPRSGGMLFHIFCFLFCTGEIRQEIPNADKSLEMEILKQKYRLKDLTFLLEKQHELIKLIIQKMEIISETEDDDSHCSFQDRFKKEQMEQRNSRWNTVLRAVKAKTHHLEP

Row | SMILES | IC50
1 | CCC(=O)Cn1c(=O)c2c(ncn2[C@@H](C)C(=O)Nc2cccc(-c3cnc(N4CC5CC5C4)nc3)n2)n(C)c1=O (stereo partly drawn) [Compound 147, (2S)—N-(6-(2-(3-azabicyclo[3.1.0]hexan-3-yl)pyrimidin-5-yl)pyridin-2-yl)-2-(3-methyl-2,6-dioxo-1-(2-oxobutyl)-2,3-dihydro-1H-purin-7(6H)-yl)propanamide] | 6 nM
2 | Cc1nc(Cn2c(=O)c3c(ncn3[C@@H](C)C(=O)Nc3cccc(-c4cnc(C)c(C(F)(F)F)c4)n3)n(C)c2=O)no1 [Compound 151, (S)-2-(3-methyl-1-((5-methyl-1,2,4-oxadiazol-3-yl)methyl)-2,6-dioxo-2,3-dihydro-1H-purin-7(6H)-yl)-N-(6′-methyl-5′-(trifluoromethyl)-2,3′-bipyridin-6-yl)propanamide] | 16 nM
3 | CC(=O)Cn1c(=O)c2c(ncn2[C@@H](C)C(=O)Nc2ncsc2-c2cnc(C(F)(F)F)nc2)n(C)c1=O [Compound 154, (S)-2-(3-methyl-2,6-dioxo-1-(2-oxopropyl)-2,3-dihydro-1H-purin-7(6H)-yl)-N-(5-(2-(trifluoromethyl)pyrimidin-5-yl)thiazol-4-yl)propanamide] | > 3200 nM
4 | CCC(=O)Cn1c(=O)c2c(ncn2[C@@H](C)C(=O)Nc2cncc(-c3cnc(N4CC5CC5C4)cn3)n2)n(C)c1=O (stereo partly drawn) [Compound 158, (2S)—N-(5′-(3-azabicyclo[3.1.0]hexan-3-yl)-[2,2′-bipyrazin]-6-yl)-2-(3-methyl-2,6-dioxo-1-(2-oxobutyl)-2,3-dihydro-1H-purin-7(6H)-yl)propanamide] | 6 nM
5 | Cc1nc(Cn2c(=O)c3c(ncn3[C@@H](C)C(=O)Nc3csc(-c4cnc(C)c(C(F)(F)F)c4)n3)n(C)c2=O)no1 [Compound 163, (S)-2-(3-methyl-1-((5-methyl-1,2,4-oxadiazol-3-yl)methyl)-2,6-dioxo-2,3-dihydro-1H-purin-7(6H)-yl)-N-(2-(6-methyl-5-(trifluoromethyl)pyridin-3-yl)thiazol-4-yl)propanamide] | 2 nM
6 | CC(=O)Cn1c(=O)c2c(ncn2[C@@H](C)C(=O)Nc2cncc(-c3cnc(N4CC5C(C4)C5(F)F)cn3)n2)n(C)c1=O (stereo partly drawn) [Compound 164, (2S)—N-(5′-(6,6-difluoro-3-azabicyclo[3.1.0]hexan-3-yl)-[2,2′-bipyrazin]-6-yl)-2-(3-methyl-2,6-dioxo-1-(2-oxopropyl)-2,3-dihydro-1H-purin-7(6H)-yl)propanamide] | 21 nM
7 | COCC(=O)Cn1c(=O)c2c(ncn2[C@@H](C)C(=O)Nc2cccc(-c3cnc(N4CC5CC5C4)nc3)n2)n(C)c1=O (stereo partly drawn) [Compound 165, (2S)—N-(6-(2-(3-azabicyclo[3.1.0]hexan-3-yl)pyrimidin-5-yl)pyridin-2-yl)-2-(1-(3-methoxy-2-oxopropyl)-3-methyl-2,6-dioxo-2,3-dihydro-1H-purin-7(6H)-yl)propanamide] | 7 nM
8 | Cc1noc(Cn2c(=O)c3c(ncn3[C@@H](C)C(=O)Nc3cccc(-c4cnc(N5CC6CC6C5)nc4)n3)n(C)c2=O)n1 (stereo partly drawn) [Compound 167, (2S)—N-(6-(2-(3-azabicyclo[3.1.0]hexan-3-yl)pyrimidin-5-yl)pyridin-2-yl)-2-(3-methyl-1-((3-methyl-1,2,4-oxadiazol-5-yl)methyl)-2,6-dioxo-2,3-dihydro-1H-purin-7(6H)-yl)propanamide] | 4 nM

The next lines start with the values.

Row | IC50 | SMILES
9 | 3 nM | COCC(=O)Cn1c(=O)c2c(ncn2[C@@H](C)C(=O)Nc2cccc(-c3cnc(N4CC5C(C4)C5(F)F)nc3)n2)n(C)c1=O (stereo partly drawn) [Compound 146, (2S)—N-(6-(2-(6,6-difluoro-3-azabicyclo[3.1.0]hexan-3-yl)pyrimidin-5-yl)pyridin-2-yl)-2-(1-(3-methoxy-2-oxopropyl)-3-methyl-2,6-dioxo-2,3-dihydro-1H-purin-7(6H)-yl)propanamide]
10 | 4 nM | Cc1noc(Cn2c(=O)c3c(ncn3[C@@H](C)C(=O)Nc3ccnc(-c4cnc(C(F)(F)F)c(C)c4)n3)n(C)c2=O)n1 [Compound 150, (S)-2-(3-methyl-1-((3-methyl-1,2,4-oxadiazol-5-yl)methyl)-2,6-dioxo-2,3-dihydro-1H-purin-7(6H)-yl)-N-(2-(5-methyl-6-(trifluoromethyl)pyridin-3-yl)pyrimidin-4-yl)propanamide]
11 | 7 nM | CC(=O)Cn1c(=O)c2c(ncn2[C@@H](C)C(=O)Nc2cncc(-c3cnc(N4CC5CC5C4)nc3)n2)n(C)c1=O (stereo partly drawn) [Compound 152, (2S)—N-(6-(2-(3-azabicyclo[3.1.0]hexan-3-yl)pyrimidin-5-yl)pyrazin-2-yl)-2-(3-methyl-2,6-dioxo-1-(2-oxopropyl)-2,3-dihydro-1H-purin-7(6H)-yl)propanamide]
12 | 3 nM | Cc1cc(Cn2c(=O)c3c(ncn3[C@@H](C)C(=O)Nc3cccc(-c4cncc(C(F)(F)F)c4)n3)n(C)c2=O)no1 [Compound 156, (S)-2-(3-methyl-1-((5-methylisoxazol-3-yl)methyl)-2,6-dioxo-2,3-dihydro-1H-purin-7(6H)-yl)-N-(5′-(trifluoromethyl)-2,3′-bipyridin-6-yl)propanamide]
13 | 1 nM | CC#CCn1c(=O)c2c(ncn2[C@@H](C)C(=O)Nc2csc(-c3cnc(N4CCC[C@@H]4C(F)(F)F)nc3)n2)n(C)c1=O [Compound 157, (S)-2-(1-(but-2-ynyl)-3-methyl-2,6-dioxo-2,3-dihydro-1H-purin-7(6H)-yl)-N-(2-(2-((R)-2-(trifluoromethyl)pyrrolidin-1-yl)pyrimidin-5-yl)thiazol-4-yl)propanamide]
14 | 6 nM | CCC(=O)Cn1c(=O)c2c(ncn2[C@@H](C)C(=O)Nc2cncc(-c3cnc(N4CC5C(C4)C5(F)F)cn3)n2)n(C)c1=O (stereo partly drawn) [Compound 159, (2S)—N-(5′-(6,6-difluoro-3-azabicyclo[3.1.0]hexan-3-yl)-[2,2′-bipyrazin]-6-yl)-2-(3-methyl-2,6-dioxo-1-(2-oxobutyl)-2,3-dihydro-1H-purin-7(6H)-yl)propanamide]
15 | 219 nM | Cc1cc(-c2nc(NC(=O)[C@H](C)n3cnc4c3c(=O)n(CC(F)(F)F)c(=O)n4C)cs2)cnc1C(F)(F)F [Compound 161, (S)-2-(3-methyl-2,6-dioxo-1-(2,2,2-trifluoroethyl)-2,3-dihydro-1H-purin-7(6H)-yl)-N-(2-(5-methyl-6-(trifluoromethyl)pyridin-3-yl)thiazol-4-yl)propanamide]
16 | 22 nM | Cc1ncc(-c2nc(NC(=O)[C@H](C)n3cnc4c3c(=O)n(CC(F)(F)F)c(=O)n4C)cs2)cc1C(F)(F)F [Compound 162, (S)-2-(3-methyl-2,6-dioxo-1-(2,2,2-trifluoroethyl)-2,3-dihydro-1H-purin-7(6H)-yl)-N-(2-(6-methyl-5-(trifluoromethyl)pyridin-3-yl)thiazol-4-yl)propanamide]
17 | 6 nM | Cc1noc(Cn2c(=O)c3c(ncn3[C@@H](C)C(=O)Nc3csc(-c4cnc(N5CC6CC6C5)nc4)n3)n(C)c2=O)n1 (stereo partly drawn) [Compound 166, (2S)—N-(2-(2-(3-azabicyclo[3.1.0]hexan-3-yl)pyrimidin-5-yl)thiazol-4-yl)-2-(3-methyl-1-((3-methyl-1,2,4-oxadiazol-5-yl)methyl)-2,6-dioxo-2,3-dihydro-1H-purin-7(6H)-yl)propanamide]
18 | 12 nM | CC#CCn1c(=O)c2c(ncn2[C@@H](C)C(=O)Nc2cccc(-c3cnc(N4CC5CC5C4)nc3)n2)n(C)c1=O (stereo partly drawn) [Compound 168, (2S)—N-(6-(2-(3-azabicyclo[3.1.0]hexan-3-yl)pyrimidin-5-yl)pyridin-2-yl)-2-(1-(but-2-yn-1-yl)-3-methyl-2,6-dioxo-2,3-dihydro-1H-purin-7(6H)-yl)propanamide]
